{
  "source": "patent US20130005759A1",
  "about": "“SMALL MOLECULE MODIFIERS OF MICRORNA MIR-122” (North Carolina State University, priority 2010, published 2013)",
  "key": {"[1]": {"system": "miR-122", "test": "psiCHECK-miR122 dual luciferase reporter assay in Huh7 cells", "assay_type": "cell-based, human", "conditions": "for miR-122 inhibitory activity (structure-activity, in words) / miR-122 activation (structure-activity, in words): Huh7, 10 μM; for miR-122 inhibitory activity (structure-activity, in words): relative to parent inhibitor 1 or 2; for miR-122 activation (structure-activity, in words): relative to parent activator 3", "source_text": "A miRNA small molecule modifier screen for miR-122 was developed based on the psiCHECK-2 (Promega) reporter plasmid (FIG. 9). This construct expresses both Renilla luciferase as well as firefly luciferase, allowing for the normalization of the signal to account for differential cellular viability and variability in transfection efficiency. The miR-122 target sequence was inserted downstream of the Renilla luciferase gene, between the PmeI and SgfI restriction sites. In another aspect of the invention, plasmids expressing luciferase or another reporter gene such as for example, fluorescent reporters (GFP and variants thereof, DsRed, etc.) or beta-galactosidase can be used to screen for small molecule modifiers of miR-122. The mi-122 target sequence may be upstream or downstream of the reporter gene. Multiple miR-122 target sites can also be inserted into or be present in the plasmid.\nThe presence of mature miR-122 will lead to a decrease in the Renilla luciferase signal (FIG. 1a). The ability to detect endogenous miR-122 was validated by transfecting the generated psiCHECK-miR122 construct into Huh7 and HeLa cells. After 48 hour incubation, the cells were assayed using a Dual Luciferase Assay Kit (Promega). In another embodiment, the cells can be incubated for about 24-96 hours. The Dual Luciferase Assay Kit provides a means to measure the amount of the luciferases by generating a luminescent signal. Using this assay the luminescence from the firefly luciferase reaction may be quenched while the luminescent reaction of Renilla luciferase can be activated. Other assays and procedures that can determine the amount of the one or more reporter genes or miR-122 expression, activity or function can be used. An example of another assay is Dual-Glo Assay (Promega).\nThe psiCHECK-miR122 vector was then employed in a small molecule screen in Huh7 cells to discover modifiers of miR-122 function. Other cells that express miR-122 such as HepG2 and Hep3B can be used in addition to or instead of Huh7 cells. An increase in the relative Renilla luciferase signal indicates a miR-122 inhibitor, while a reduction in the luciferase signal indicates a miR-122 activator. A genus of compounds that may have activity as modifiers of miR122 function are the Diversity Set II (1364 compounds) from the NCI Developmental Therapeutics Program was screened using Huh7 cells containing the psiCHECK-miR122 reporter. Cells were exposed to the small molecules and the relative luciferase signal was measured after 48 hours using a Dual Luciferase Assay Kit (Promega). In another embodiment the cells can be exposed to the small molecules for about 24-96 hours. As explained above, other assays and procedures that can determine the amount of the one or more reporter genes or miR-122 expression, activity or function can be used.\nThe analogs were screened for activity using the previously described miR-122 assay. All cells were treated with 10 μM of a compound and experiments were performed in triplicate to ensure statistical validity. The data was normalized to a 1% DMSO control and is reported in relative luciferase units (RLU). The standard deviation was calculated from three independent assays. Some analogs of miR-122 inhibitor compound 1 are:\nHuh7 and HeLa cells were transfected at approximately 60% confluency with either the psiCHECK-Control plasmid (the original psiCHECK-2 plasmid containing no known miRNA binding site) or the psiCHECK-miR122 plasmid (0.5 μg) using X-tremGENE transfection reagent (3:2 reagent/DNA ratio; Roche) in Opti-Mem media (Invitrogen). All transfections were performed in triplicate for statistical analysis. The cells were incubated at 37° C. for 4 hours followed by the replacement of transfection media with standard DMEM growth media. After 48 hours of incubation the media was removed, cells were lysed and assayed with a Dual Luciferase Assay Kit (Promega) using a Wallac VICTOR^3V luminometer with a measurement time of 1 s and a delay time of 2 s. […]"}, "[2]": {"system": "psiCHECK-control vector (no miRNA target sequence)", "test": "psiCHECK-control vector luciferase counter-assay in Huh7 cells", "assay_type": "cell-based, human", "conditions": "Huh7, 10 μM", "source_text": "(FIG. 3). […] The relative luciferase units were normalized to the corresponding DMSO signals. […] This confirms that compound 2 and the antagomir have similar effects on the reduction of miR-122 function in Huh7 cells.\nCompounds which elicited greater than a 5-fold increase of the relative luciferase units signal compared to the DMSO control were then re-assayed in triplicate to confirm the validity of the hit compound. Upon secondary validation of miR-122 inhibition, identical assays were repeated with the psiCHECK-Control vector to ascertain that the effect is specific to the miR-122 pathway, and not simply affecting the Renilla gene. In order to assess the relative degree of miR-122 inhibition, Huh7 cells were also co-transfected with either the psiCHECK-Control plasmid or the psiCHECK-miR122 plasmid (0.5 μg) and a miR-122 2′-OMe PS antagomir (50 pmol; 5′ […] (SEQ ID NO:4) 3′; IDT DNA)(2) using the X-tremGENE transfection reagent (Roche Applied Science, 4:2 reagent/DNA ratio). The transfection media was replaced with standard DMEM growth media after 4 hours and the cells were incubated for 48 hours prior to analysis with a Dual Luciferase Assay Kit (FIG. 3)."}, "[3]": {"system": "hepatitis C virus (HCV) genotype 1a H77c RNA", "test": "HCV replication in Huh7 cells (HCV RNA by quantitative RT PCR)", "assay_type": "cell-based", "conditions": "Huh7, 10 μM (antagomir transfected), 48 hours", "protocol": "Aberrantly regulated miR-122 is involved in the development of heptocellular carcinoma (HCC). miR-122 is a cellular component required by hepatitis C virus (HCV) for viral replication. […] Due to the efficient down-regulation of miRNA-122 by the small molecule inhibitors 1 and 2, both compounds were tested for their ability to inhibit HCV replication in Huh7 cells. The pHtat2Neo/QR/KR/FV/SI plasmid (provided by Dr. Stanley Lemon of University of Texas Medical Branch (UTMB)) was used to generate genotype 1a H77c RNA, which was subsequently transfected into Huh7 cells.^16 The cells were then either transfected with a miR-122 antagomir (positive control), or treated with compounds 1 and 2 (10 μM), or DMSO (negative control). After 48 hours, total RNA was isolated and HCV RNA levels were measured by quantitative RT PCR (FIG. 7). In agreement with previous reports, the antagomir reduced HCV RNA levels to 20%.^6 Moreover, the small molecule miR-122 inhibitors 1 and 2 elicited a reduction in viral load to 48% and 47%, respectively.\nThe pHtat2Neo/QR/KR/FV/SI plasmid (provided by Dr. Stanley Lemon)^16 was linearized using XbaI (10 units, 50 μL reaction; New England Biolabs), followed by transcription with T7 RNA Polymerase (6 h, 37° C.), and purification on Microcon 10 columns. Huh7 cells were then grown to 60% confluency in a 6 well plate and transfected with 1 μg RNA using X-tremGENE transfection reagent (Roche Applied Science, 3:2 reagent/RNA ratio) in Opti-Mem media (Invitrogen). After a 4 hour incubation at 37° C., the transfection media was removed and replaced with standard growth media (2 mL) supplemented with 10 μM of 1 or 2 (1% DMSO final concentration). All experiments were conducted in triplicate for statistical validation. […] Quantitative RT-PCR was then performed as previously described using the general HCV RT-PCR Primers (5′: […] 3′ (SEQ ID NO:7) and 5′ […] 3′) (SEQ ID NO:8) and GADPH primers (5′ […] 3′ (SEQ ID NO:9) and 5′ […] 3′) (SEQ ID NO:10) as a standard control."}},
  "note": "In the oligonucleotide strings, read from the 5' end, every base follows the letter of its sugar. An asterisk marks phosphorothioate; unmarked linkages are phosphodiester. Other units and linkages are bracketed, terminal groups are in braces. A string of capitals states the bases alone. m = 2'-O-methyl",
  "data": [
    {"compound": "O=C(Nc1ccc(I)cc1)c1ccc(Cl)cc1Cl", "note": "[1i, 2,4-Dichloro-N-(4-iodophenyl)benzamide]", "values": [
      {"measurement": "miR-122 inhibitory activity (structure-activity, in words)", "setting": "[1]", "value": "complete loss of miR-122 inhibitory activity"}
    ]},
    {"compound": "Nc1ccc(NC(=O)c2ccc(Cl)cc2Cl)cc1", "note": "[1h, N-(4-Aminophenyl)-2,4-dichlorobenzamide]", "values": [
      {"measurement": "miR-122 inhibitory activity (structure-activity, in words)", "setting": "[1]", "value": "complete loss of miR-122 inhibitory activity"}
    ]},
    {"compound": "O=C(NCc1ccc2ccccc2c1)c1ccc(Cl)cc1Cl", "note": "[1e]", "values": [
      {"measurement": "miR-122 inhibitory activity (structure-activity, in words)", "setting": "[1]", "value": "virtually complete loss of miR-122 inhibitory activity"}
    ]},
    {"compound": "O=S(=O)(Nc1ccccc1)c1ccc2c(c1)CCCN2", "note": "[2c, N-Phenyl-1,2,3,4-tetrahydroquinoline-6-sulfonamide]", "values": [
      {"measurement": "miR-122 inhibitory activity (structure-activity, in words)", "setting": "[1]", "value": "Activity was maintained"},
      {"measurement": "relative luciferase units (RLU) normalized to a DMSO control", "setting": "[1]; Huh7, psiCHECK-miR122, 10 μM, mean ± SD of three independent assays", "value": "9.9±3.1", "unit": "RLU"}
    ]},
    {"compound": "NCCN1C(=O)c2cccc3cc(N)cc(c23)C1=O", "note": "[3c, 5-Amino-2-(2-aminoethyl)-1H-benzo[de]isoquinoline-1,3(2H)-dione]", "values": [
      {"measurement": "miR-122 activation (structure-activity, in words)", "setting": "[1]", "value": "increasing loss of activity"}
    ]},
    {"compound": "CN(C)CCN1C(=O)c2cccc3cccc(c23)C1=O", "note": "[3a, 2-(2-(Dimethylamino)ethyl)-1H-benzo[de]isoquinoline-1,3(2H)-dione]", "values": [
      {"measurement": "miR-122 activation (structure-activity, in words)", "setting": "[1]", "value": "retention of activity"}
    ]},
    {"compound": "O=C(NCc1ccc2ccccc2c1)c1ccc(Cl)cc1Cl", "note": "[1f]", "values": [
      {"measurement": "miR-122 inhibitory activity (structure-activity, in words)", "setting": "[1]", "value": "virtually complete loss of miR-122 inhibitory activity"}
    ]},
    {"compound": "antagomir: miR-122 2′-OMe PS antagomir, 5′ ACAAACACCAUUGUCACACUCCA 3′ (SEQ ID NO:4), positive control (mA*mC*mA*mA*mA*mC*mA*mC*mC*mA*mU*mU*mG*mU*mC*mA*mC*mA*mC*mU*mC*mC*mA) [reference compound]", "values": [
      {"measurement": "Renilla luciferase expression with psiCHECK-miR122 (in words)", "setting": "[1]; Huh7, 10 μM (antagomir transfected), normalized to DMSO", "value": "significant increase"},
      {"measurement": "normalized Renilla luciferase signal with psiCHECK-control vector", "setting": "[2]", "value": "no statistically significant alteration"},
      {"measurement": "HCV RNA levels / viral load reduced to", "setting": "[3]", "value": 20, "unit": "%"}
    ]},
    {"compound": "O=S(=O)(c1ccc2c(c1)CCCN2)N1CCCc2ccccc21", "note": "[2b, 6-(3,4-Dihydroquinolin-1(2H)-ylsulfonyl)-1,2,3,4-tetrahydroquinoline]", "values": [
      {"measurement": "miR-122 inhibitory activity (structure-activity, in words)", "setting": "[1]", "value": "loss of activity"}
    ]},
    {"compound": "O=C(NCc1ccc2ccccc2c1)c1ccc(Cl)cc1Cl", "note": "[1m]", "values": [
      {"measurement": "miR-122 inhibitory activity (structure-activity, in words)", "setting": "[1]", "value": "substantial loss of activity"}
    ]},
    {"compound": "Nc1ccc(NS(=O)(=O)c2ccc3c(c2)CCCN3)cc1", "note": "[2d, N-(4-Aminophenyl)-1,2,3,4-tetrahydroquinoline-6-sulfonamide]", "values": [
      {"measurement": "miR-122 inhibitory activity (structure-activity, in words)", "setting": "[1]", "value": "lost"}
    ]},
    {"compound": "Nc1cc2c3c(cccc3c1)C(=O)N(Cc1ccc3ccccc3c1)C2=O", "note": "[3g, 5-amino-2-(naphthalen-2-ylmethyl)-1H-benzo[de] isoquinoline-1,3(2H)-dione]", "values": [
      {"measurement": "miR-122 activation (structure-activity, in words)", "setting": "[1]", "value": "complete loss of miR-122 activation"}
    ]},
    {"compound": "O=C(Nc1ccccc1)c1ccc(Cl)cc1Cl", "note": "[1g, 2,4-Dichloro-N-phenylbenzamide]", "values": [
      {"measurement": "miR-122 inhibitory activity (structure-activity, in words)", "setting": "[1]", "value": "complete loss of miR-122 inhibitory activity"}
    ]}
  ]
}
